Where “and” joins values, the source holds several entries; their conditions need not be identical. Equal values may be shown once. Blank lines part the entries; values can stand above or below the compound they belong to.
How the values were obtained:
[1] = molecular target: T1, rat NTPDase1 (Rattus norvegicus, UniProt P97687); format: biochemical
T1 sequence (P97687 1-511): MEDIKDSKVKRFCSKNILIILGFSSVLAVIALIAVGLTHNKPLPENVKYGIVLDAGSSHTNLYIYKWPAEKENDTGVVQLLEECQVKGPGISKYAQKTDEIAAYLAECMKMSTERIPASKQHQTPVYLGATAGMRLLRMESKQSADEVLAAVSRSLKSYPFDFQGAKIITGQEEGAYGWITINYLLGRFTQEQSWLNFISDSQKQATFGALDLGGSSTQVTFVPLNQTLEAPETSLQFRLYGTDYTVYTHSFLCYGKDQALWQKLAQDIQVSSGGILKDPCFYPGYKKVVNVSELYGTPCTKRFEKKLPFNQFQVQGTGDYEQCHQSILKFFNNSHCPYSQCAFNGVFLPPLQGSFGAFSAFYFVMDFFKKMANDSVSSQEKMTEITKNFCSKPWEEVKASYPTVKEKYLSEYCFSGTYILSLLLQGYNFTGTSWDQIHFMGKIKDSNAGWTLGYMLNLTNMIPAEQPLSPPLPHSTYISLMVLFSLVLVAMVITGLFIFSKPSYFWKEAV

[2] = molecular target: T2, rat NTPDase2 (Rattus norvegicus, UniProt O35795); format: biochemical
T2 sequence (O35795 1-495): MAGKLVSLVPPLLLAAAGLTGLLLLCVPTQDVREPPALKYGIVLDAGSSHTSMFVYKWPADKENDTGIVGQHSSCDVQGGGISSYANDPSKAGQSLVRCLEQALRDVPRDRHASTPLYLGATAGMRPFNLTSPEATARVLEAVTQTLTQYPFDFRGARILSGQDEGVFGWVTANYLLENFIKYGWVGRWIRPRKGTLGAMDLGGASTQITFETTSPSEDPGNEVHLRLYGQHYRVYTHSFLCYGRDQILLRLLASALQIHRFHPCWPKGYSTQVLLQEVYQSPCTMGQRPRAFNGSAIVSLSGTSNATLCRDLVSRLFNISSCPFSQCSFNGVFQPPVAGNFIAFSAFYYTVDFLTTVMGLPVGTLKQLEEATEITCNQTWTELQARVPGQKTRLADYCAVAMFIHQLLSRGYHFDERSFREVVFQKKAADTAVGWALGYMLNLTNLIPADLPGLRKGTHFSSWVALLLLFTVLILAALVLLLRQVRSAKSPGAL

[3] = molecular target: T3, rat NTPDase3 (Rattus norvegicus, UniProt A6I415); format: biochemical
T3 sequence (A6I415 1-529): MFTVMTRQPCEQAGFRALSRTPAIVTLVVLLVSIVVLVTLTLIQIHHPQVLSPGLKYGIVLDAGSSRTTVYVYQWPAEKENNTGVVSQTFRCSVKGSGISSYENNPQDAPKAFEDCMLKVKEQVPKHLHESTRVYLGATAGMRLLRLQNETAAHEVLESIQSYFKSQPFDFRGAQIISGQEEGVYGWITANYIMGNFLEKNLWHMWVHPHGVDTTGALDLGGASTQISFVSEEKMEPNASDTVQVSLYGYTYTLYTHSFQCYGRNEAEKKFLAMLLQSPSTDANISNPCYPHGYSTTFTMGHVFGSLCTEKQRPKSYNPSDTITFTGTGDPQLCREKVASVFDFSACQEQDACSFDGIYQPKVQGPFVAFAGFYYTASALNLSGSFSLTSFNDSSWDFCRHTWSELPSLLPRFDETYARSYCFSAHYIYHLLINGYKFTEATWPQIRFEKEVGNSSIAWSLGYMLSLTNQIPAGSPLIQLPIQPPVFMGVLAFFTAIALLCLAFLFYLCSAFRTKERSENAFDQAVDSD

[4] = test system: human NTPDase1; conditions: read-out: Reported Km human NTPDase1; ATP; cited from earlier work
[5] = test system: mouse NTPDase1; conditions: read-out: Reported Km mouse NTPDase1; ATP; cited from earlier work
[6] = test system: mouse NTPDase2; conditions: read-out: Reported Km mouse NTPDase2; ATP; no reference given; cited from earlier work
[7] = test system: human NTPDase3; conditions: read-out: Reported Km human NTPDase3; ATP; respectively ref 32, 40; cited from earlier work
[8] = test system: mouse NTPDase3; conditions: read-out: Reported Km mouse NTPDase3; ATP; cited from earlier work
[9] = test system: recombinant rat NTPDase1; conditions: read-out: Reported Km recombinant rat NTPDase1; ATP; cited from earlier work
[10] = molecular target: T1, rat NTPDase1; format: biochemical; remark: listed apart in the source
[11] = molecular target: T2, rat NTPDase2; format: biochemical; remark: listed apart in the source
[12] = molecular target: T3, rat NTPDase3; format: biochemical; remark: listed apart in the source
[13] = test system: rat superior cervical ganglionic cells; conditions: at 10 µM concentration; cited from earlier work
[14] = substrate ATP, membrane preparation

Km ([1]; read-out: Km ± SEM NTPDase1, substrate ATP 10-1000 µM, product AMP): 76 ± 12 µM
Vmax ± SEM NTPDase1 [1, 14]: 0.023 ± 0.002 μmol/min/mg protein
Km ([2]; read-out: Km ± SEM NTPDase2, substrate ATP 25-1000 µM, product ADP): 203 ± 8 µM
Vmax ± SEM NTPDase2 [2, 14]: 0.021 ± 0.002 μmol/min/mg protein
Km ([3]; read-out: Km ± SEM NTPDase3, substrate ATP 25-1000 µM, product ADP): 311 ± 4 µM
Vmax ± SEM NTPDase3 [3, 14]: 0.010 ± 0.001 μmol/min/mg protein
SMILES: Nc1ncnc2c1ncn2[C@@H]1O[C@H](COP(=O)(O)OP(=O)(O)OP(=O)(O)O)[C@@H](O)[C@H]1O [ATP]
Km [4]: 17 µM
Km [5]: 12 µM
Km [6]: 37 µM
Km [7]: 75 µM and 128 µM
Km [8]: 11 µM
Km [9]: 75 µM

Ki [10]: > 1000 µM
Ki [11]: > 1000 µM
Ki [12]: > 1000 µM
SMILES: OCCN(CCO)c1nc(N2CCCCC2)c2nc(N(CCO)CCO)nc(N3CCCCC3)c2n1 [Dipyridamole, dipyridamole]
inhibition of ATP hydrolysis [13]: effective inhibitor

Ki for NTPDase1 relative to NTPDase2 ([10]; ratio of Ki values): five fold higher
SMILES: Cc1ccc(C(=O)Nc2ccc(S(=O)(=O)O)c3cc(S(=O)(=O)O)cc(S(=O)(=O)O)c23)cc1NC(=O)c1cccc(NC(=O)Nc2cccc(C(=O)Nc3cc(C(=O)Nc4ccc(S(=O)(=O)O)c5cc(S(=O)(=O)O)cc(S(=O)(=O)O)c45)ccc3C)c2)c1 [Suramin, suramin]
